Measurements published in the OligoGym collection.
Values joined by “and” are separate entries in the source; they are usually repeats but may differ in a detail not shown here. Equal values may be shown once. After the bases stand the sugars from the 5' end (letter, count) and the backbone: PS all phosphorothioate, else s phosphorothioate and o phosphodiester by linkage. Methylation of C is not given here. e = 2'-O-(2-methoxyethyl) (MOE); d = 2'-deoxy (DNA)

Biological target: DGAT2
Details: ASO

Sequence	target mRNA inhibition (HepG2, 0.12 µM)	target mRNA inhibition (HepG2, 2.5 µM)	target mRNA inhibition (HepG2, 10 µM)	target mRNA inhibition (HepG2, 20 µM)
GGTGATGGGCTTGGAGTAGG (sugars e5 d10 e5, PS)	36%			
GGTTCCGCAGGGTGACTGCA (sugars e5 d10 e5, PS)		48%	68%	
GGTTCTTGTCCTGGTCCCAG (sugars e5 d10 e5, PS)		75% and 77%	90% and 94%	
GGTTGTGTGTCTTCACCAGC (sugars e3 d14 e3, PS)	70%			
GGTTTACTGCATAGCTGAGC (sugars e5 d10 e5, PS)		79% and 72%	86% and 76%	
GTAAGCCTCGGTGTCCTCTC (sugars e5 d10 e5, PS)		91%	85%	
GTACACTTCATTCTCTCCAA (sugars e5 d10 e5, PS)	82%			
GTATCCTTAAAGCAGGGCCC (sugars e5 d10 e5, PS)		84% and 81%	85% and 89%	
GTCAAACACCAGCCAAGTGA (sugars e5 d10 e5, PS)	15%			
GTCAGCAGGTTGTGTGTCTT (sugars e5 d10 e5, PS)	64% and 59%	30%	76%	93%
GTCATACTTACTGTTCAGCA (sugars e5 d10 e5, PS)		78% and 65%	94% and 91%	
GTCCTAGTGCCCCAGGG (sugars e3 d10 e4, PS)		76% and 86%	93% and 95%	
GTCCTGCAGTTTCAGGACTA (sugars e5 d10 e5, PS)	54%			
GTCTGGGAACAGCAGCATCA (sugars e5 d10 e5, PS)		72%	89%	
GTCTGTGCTGCATCCATGTC (sugars e5 d10 e5, PS)		41% and 50%	74%	
GTGATGACTTCCCAGGG (sugars e3 d10 e4, PS)		66% and 82%	67% and 84%	
GTGATTATTCTAAAACTCAA (sugars e5 d10 e5, PS)		34%	71%	
GTGCAGCCTACAAGAGCCTG (sugars e5 d10 e5, PS)		67%	86%	
GTGCTCTCCAACTCCTCCCC (sugars e5 d10 e5, PS)	34%			
GTGCTTTCTAAGTACCCTTT (sugars e5 d10 e5, PS)		81% and 78%	92% and 89%	
GTGGGAAAGGCACAGGCTTT (sugars e5 d10 e5, PS)	53%			
GTGGTCTGGGAACAGCAGCA (sugars e5 d10 e5, PS)		72% and 61%	66% and 72%	
GTGGTTGCAATGTTGCC (sugars e3 d10 e4, PS)		67% and 80%	88% and 94%	

Sequence	target mRNA inhibition (HepG2, 0.12 µM)	target mRNA inhibition (HepG2, 2.5 µM)	target mRNA inhibition (HepG2, 10 µM)	target mRNA inhibition (HepG2, 20 µM)
GTGTGTCTTCACCAGCTGGA (sugars e5 d10 e5, PS)	53%			
GTTCCTGGTGGTCAGCAGGT (sugars e5 d10 e5, PS)	63%			
GTTCTTGTCCTGGTCCCAGT (sugars e5 d10 e5, PS)		83% and 68%	95% and 93%	
GTTCTTTTGGAAGGGTGGAG (sugars e5 d10 e5, PS)	52%			
GTTGCAATGTTGCCATC (sugars e3 d10 e4, PS)		69% and 75%	89% and 96%	
GTTGGTCTTTTTGGCTGCCC (sugars e5 d10 e5, PS)		77% and 67%	88% and 86%	
GTTTACTGCATAGCTGAGCA (sugars e5 d10 e5, PS)		69% and 82%	79% and 96%	
GTTTAGGCTATGGTCTGAGC (sugars e5 d10 e5, PS)		85% and 75%	92%	
GTTTGCTCAGTTCTTCCAAC (sugars e5 d10 e5, PS)		83% and 78%	94% and 90%	
TAACCCACAGACACCCATGA (sugars e5 d10 e5, PS)	14%			
TAATCTGCTGCTCAGAAGGC (sugars e5 d10 e5, PS)	36%			
TAATTTCTTTTAAATAACCC (sugars e5 d10 e5, PS)	0%			
TAGAGCACTTGATCTGGGAC (sugars e5 d10 e5, PS)		38% and 46%	81% and 85%	
TAGCATTGCCACTCCCATTC (sugars e5 d10 e5, PS)	71%			
TAGCTCTCAGTGAAGCTGGA (sugars e5 d10 e5, PS)		84% and 81%	90% and 91%	
TAGGCATGCTTCCTCCCACT (sugars e5 d10 e5, PS)		65%	84%	
TAGGCTTTAGAAATTCACCA (sugars e5 d10 e5, PS)		71% and 72% and 76%	89% and 82% and 91%	
TATAATTTCTTTTAAATAAC (sugars e5 d10 e5, PS)	0%			
TATGCCTGGGAACTTCTTGC (sugars e5 d10 e5, PS)	26%			
TCAAACCTAGGTTCAGACTT (sugars e5 d10 e5, PS)	47%			
TCACCAGCTGGATGGGAAAG (sugars e5 d10 e5, PS)	22%			
TCACCAGGGCCTCCATGTAC (sugars e3 d14 e3, PS)	68%			
